Results taken from paper PMC10814725, “In Vitro Anti-Inflammatory Study of Limonoids Isolated from Chisocheton Plants” (Current Issues in Molecular Biology, 2024).

Tests used:
TNF-α = assay: ELISA of TNF-α production in LPS-stimulated THP-1 cells; format: cell-based, human; details: for Effect on TNF-α level: 10 µM, compared to LPS (+)-stimulated group, THP-1 cells; for IC50: Homo sapiens, THP-1, 18 h, LPS-stimulated (10 ng/mL) THP-1 cells, 1, 5, 10, 20 µM, 18 h, read-out: TNF-α IC50; for TNF-α SI (selectivity index, CC50/IC50): THP-1 CC50 / TNF-α IC50
[1] = tested on: TNF-α, IL-6, IL-1β, and MCP-1; assay: ELISA of pro-inflammatory markers overall (TNF-α, IL-6, IL-1β, MCP-1) in LPS-stimulated THP-1 cells; format: cell-based; details: Homo sapiens, read-out: Overall IC50 values for the evaluated pro-inflammatory markers
Procedure, shortened: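 PMA (0.5 μM)-differentiated THP-1 cells, rested overnight in 0.1% FBS medium, pretreated with compound 1 h, then LPS (10 ng/mL) for 18 h at 37 °C. Supernatant cytokines measured by human ELISA (pg/mL); % inhibition normalised to LPS+ and LPS− controls, IC50 by linear interpolation.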

IL-6 = assay: ELISA of IL-6 production in LPS-stimulated THP-1 cells; format: cell-based, human; details: for Effect on IL-6 level: 10 µM, compared to LPS (+)-stimulated group, THP-1 cells; for IC50: Homo sapiens, THP-1, 18 h, LPS-stimulated (10 ng/mL) THP-1 cells, 1, 5, 10, 20 µM, 18 h
Method: (§1) The logarithmic growth phase of THP-1 cells was achieved by seeding in 96-well plates at a density of 5 × 10^4 cells/well and differentiated for 24 h in the presence of PMA (0.5 μM solution in medium). After 24 h of incubation, the culture medium was removed from the 96-well plate and the cells were washed with PBS. […] The cells were pretreated with 17 limonoids at the corresponding concentration for 1 h, followed by the addition of LPS (10 ng/mL) and then incubation at 37 °C for 18 h. Finally, 50 μL of each culture supernatant solution was taken to determine the concentrations of IL-6, MCP-1, and IL-1β using the corresponding commercially available human ELISA kits following the manufacturer’s instructions. The analyte concentration in the supernatant was measured in pg/mL, and the inhibition level was expressed as a fold change compared to the LPS (−) control group. To determine the IC50 value, the dose-response data were normalized to the LPS-stimulated-only group, and the percentage of inhibition was calculated using the following formula: % Inhibition=(Absorbance of LPS+ control−Absorbance of compound treatment with LPS)/(Absorbance of LPS+ control−Absorbance of LPS− control)×100
(§2) Furthermore, the % inhibition data were interpolated into linear equations to determine the IC50 values.

MCP-1 = assay: ELISA of MCP-1 production in LPS-stimulated THP-1 cells; format: cell-based, human; details: for Effect on MCP-1 level: 10 µM, compared to LPS (+)-stimulated group, THP-1 cells; for IC50: Homo sapiens, LPS-stimulated (10 ng/mL) THP-1 cells, 1, 5, 10, 20 µM, 18 h; for MCP-1 SI (selectivity index, CC50/IC50): THP-1 CC50 / MCP-1 IC50
Method: as §1, §2

Compound	Effect on TNF-α level (TNF-α)	IC50 (TNF-α) [µM]	TNF-α SI (selectivity index, CC50/IC50) (TNF-α)	IC50 [1] [µM]	Effect on IL-6 level (IL-6)	IC50 (IL-6) [µM]	IL-6 SI (selectivity index, CC50/IC50) (IL-6; THP-1 CC50 / IL-6 IC50)	Effect on MCP-1 level (MCP-1)	IC50 (MCP-1) [µM]	MCP-1 SI (selectivity index, CC50/IC50) (MCP-1)
CC(=O)O[C@H]1[C@@H](O)[C@@]2(C)C3=CC[C@@H](c4ccoc4)[C@]3(C)CC[C@@H]2[C@@]2(C)C=CC(=O)C(C)(C)[C@H]12 [Compound 3, 6α-O-acetyl-7-deacetylnimocinol]	significantly reduced	9.18	2.21	< 20	significantly reduced	3.06	6.63	significantly reduced	2.11	9.61
CC(=O)O[C@H]1[C@@H](OC(C)=O)[C@@]2(C)C3=CC[C@@H](c4ccoc4)[C@]3(C)CC[C@@H]2[C@@]2(C)C=CC(=O)C(C)(C)[C@H]12 [Compound 5, dysobinin]	significantly reduced	5.76	2.53	< 20	significantly reduced	1.64 ± 0.97		significantly reduced	0.87	16.76
